From patent US9169355B2, “Biocompatible agent for dispersing nanoparticles into an aqueous medium using mussel adhesive protein-mimetic polymer” (Hanwha Chemical Corporation, priority 2010, dated 2015)

Details: mouse, in vivo

In the case of Fe3O4, the half-life in blood is reported as “prolonged”.
